Reference: ChEMBL document CHEMBL1201862, “PubChem BioAssay data set” (2004)
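Interpolation was linear, between the two tested concentrations surrounding the appropriate level; five concentrations were tested over 48 hours in 96-well plates. Abbreviation: GI50, concentration required for 50% inhibition of growth.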 Active and inactive are the calls of the source. No stated cut-off is given here; in the data, active = GI50 up to about 1.1 µM and inactive = higher.

Legend:
Test in all cases: NCI anticancer screen, dose series, 48 h
OVCAR-3 = test system: OVCAR-3
786-0 = test system: 786-0
SN12C = test system: SN12C
SW-620 = test system: SW-620
EKVX = test system: EKVX
NCI-H522 = test system: NCI-H522
T47D = test system: T47D
NCI/ADR-RES = test system: NCI/ADR-RES
HCT-116 = test system: HCT-116
A549 = test system: A549
COLO 205 = test system: COLO 205
OVCAR-4 = test system: OVCAR-4
ACHN = test system: ACHN
NCI-H460 = test system: NCI-H460
RXF 393 = test system: RXF 393
CCRF-CEM = test system: CCRF-CEM
LOX IMVI = test system: LOX IMVI
MOLT-4 = test system: MOLT-4
Malme-3M = test system: Malme-3M
BT-549 = test system: BT-549
SK-MEL-28 = test system: SK-MEL-28
TK-10 = test system: TK-10
U-251 = test system: U-251
HT-29 = test system: HT-29
NCI-H226 = test system: NCI-H226
SK-MEL-2 = test system: SK-MEL-2
DU-145 = test system: DU-145
MDA-MB-231 = test system: MDA-MB-231
Hs-578T = test system: Hs-578T
SF-295 = test system: SF-295
HCT-15 = test system: HCT-15
OVCAR-5 = test system: OVCAR-5
SK-OV-3 = test system: SK-OV-3
RPMI-8226 = test system: RPMI-8226
MDA-N = test system: MDA-N
HCC 2998 = test system: HCC 2998
NCI-H23 = test system: NCI-H23
OVCAR-8 = test system: OVCAR-8
SNB-75 = test system: SNB-75
KM12 = test system: KM12
A498 = test system: A498
UACC-62 = test system: UACC-62
HOP-92 = test system: HOP-92
CAKI-1 = test system: CAKI-1
UO-31 = test system: UO-31
M14 = test system: M14
SNB-19 = test system: SNB-19
HOP-62 = test system: HOP-62
SF-268 = test system: SF-268
K562 = test system: K562
PC-3 = test system: PC-3
UACC-257 = test system: UACC-257
MDA-MB-435 = test system: MDA-MB-435
SK-MEL-5 = test system: SK-MEL-5
IGROV-1 = test system: IGROV-1
MCF7 = test system: MCF7
SF-539 = test system: SF-539
SR = test system: SR

Measured: GI50

CC(=O)O[C@H]1C[C@@H](OC(C)=O)[C@@](C)(O)[C@@H]2[C@@H](OC(C)=O)[C@@]3(O)[C@H](/C=C(/CO)[C@H]4O[C@H]4[C@@H](OC(C)=O)[C@@]12C)OC(=O)[C@@H]3C
9.1 µM: HCT-15
inactive: OVCAR-3 5.51 µM | 786-0 7.64 µM | SN12C 12.2 µM | SW-620 11.5 µM | EKVX > 25 µM | NCI-H522 5.42 µM | T47D 22.4 µM | NCI/ADR-RES > 25 µM | HCT-116 10.3 µM | A549 10.4 µM | COLO 205 9.35 µM | OVCAR-4 > 25 µM | ACHN 16.3 µM | NCI-H460 8.13 µM | RXF 393 2.08 µM | CCRF-CEM 6.59 µM | LOX IMVI 8.71 µM | MOLT-4 16.4 µM | Malme-3M 7.78 µM | BT-549 > 25 µM | SK-MEL-28 22.3 µM | TK-10 > 25 µM | U-251 6.1 µM | HT-29 11 µM | NCI-H226 9.73 µM | SK-MEL-2 6.89 µM | DU-145 5.27 µM | MDA-MB-231 7.06 µM | Hs-578T 8.43 µM | SF-295 6.12 µM | OVCAR-5 > 25 µM | SK-OV-3 11.9 µM | RPMI-8226 9.86 µM | MDA-N 3.09 µM | HCC 2998 8.91 µM | NCI-H23 16.8 µM | OVCAR-8 12.7 µM | SNB-75 5.53 µM | KM12 13.5 µM | A498 > 25 µM | UACC-62 7.64 µM | HOP-92 17.5 µM | CAKI-1 17.7 µM | UO-31 22.5 µM | M14 10.8 µM | SNB-19 > 25 µM | HOP-62 7.26 µM | SF-268 19.1 µM | K562 17.7 µM | PC-3 6.04 µM | UACC-257 13.7 µM | MDA-MB-435 5.42 µM | SK-MEL-5 9.25 µM | IGROV-1 8.17 µM

O=c1c(=O)c2c(Br)sc(Br)c2c1=O
19.4 µM: HCT-15
inactive: MCF7 20.3 µM | OVCAR-3 18.5 µM | 786-0 22.6 µM | SN12C 17.3 µM | SF-539 19.5 µM | SW-620 15.8 µM | EKVX 20.1 µM | NCI-H522 16.1 µM | T47D 20 µM | NCI/ADR-RES 32.7 µM | HCT-116 20.1 µM | A549 > 100 µM | COLO 205 20.3 µM | OVCAR-4 16.4 µM | ACHN 20.6 µM | NCI-H460 > 100 µM | RXF 393 18.7 µM | LOX IMVI 19.7 µM | MOLT-4 24.3 µM | Malme-3M 17.7 µM | BT-549 19.4 µM | SK-MEL-28 14.7 µM | TK-10 22.1 µM | U-251 23.6 µM | HT-29 25 µM | NCI-H226 > 100 µM | SK-MEL-2 20.8 µM | DU-145 > 100 µM | Hs-578T 31 µM | SF-295 > 100 µM | OVCAR-5 20.3 µM | SK-OV-3 43.8 µM | RPMI-8226 21.6 µM | MDA-N 18.1 µM | HCC 2998 57.3 µM | NCI-H23 20.3 µM | OVCAR-8 18.3 µM | SNB-75 28.9 µM | KM12 > 100 µM | A498 > 100 µM | UACC-62 20.1 µM | HOP-92 17.9 µM | CAKI-1 19.1 µM | UO-31 33 µM | M14 19.8 µM | SNB-19 70.6 µM | HOP-62 30.2 µM | SF-268 33 µM | K562 21.4 µM | PC-3 19.2 µM | SR 20.6 µM | UACC-257 19.5 µM | MDA-MB-435 19.1 µM | SK-MEL-5 16.9 µM | IGROV-1 18.2 µM
